In PubChem BioAssay (NCI):
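Cultured in 96-well plates, cells were exposed to test compound for 48 hours across five concentrations. GI50 is the concentration that inhibits growth by half. The concentration for full growth arrest is given as TGI.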

Legend:
Test in all cases: NCI tumour cell line growth inhibition, 48 h
SF-295 CNS = test system: SF-295 CNS
CAKI-1 renal = test system: CAKI-1 renal
OVCAR-4 ovarian = test system: OVCAR-4 ovarian
TK-10 renal = test system: TK-10 renal
MDA-MB-435 = test system: MDA-MB-435
MALME-3M melanoma = test system: MALME-3M melanoma
A549 NSCLC = test system: A549 NSCLC
ACHN renal = test system: ACHN renal
NCI-H226 lung = test system: NCI-H226 lung
BT-549 breast = test system: BT-549 breast
M14 melanoma = test system: M14 melanoma
SNB-75 CNS = test system: SNB-75 CNS
A498 renal = test system: A498 renal
KM12 colon = test system: KM12 colon
SN12C renal = test system: SN12C renal
SF-539 CNS = test system: SF-539 CNS
SK-MEL-28 melanoma = test system: SK-MEL-28 melanoma
OVCAR-3 ovarian = test system: OVCAR-3 ovarian
COLO 205 colon = test system: COLO 205 colon
SR leukemia = test system: SR leukemia
HCT-15 colon = test system: HCT-15 colon
EKVX NSCLC = test system: EKVX NSCLC
MOLT-4 leukemia = test system: MOLT-4 leukemia
HS 578T breast = test system: HS 578T breast
UACC-257 melanoma = test system: UACC-257 melanoma
NCI-H23 lung = test system: NCI-H23 lung
HCC-2998 colon = test system: HCC-2998 colon
U251 CNS = test system: U251 CNS
NCI-H460 lung = test system: NCI-H460 lung
LOX IMVI melanoma = test system: LOX IMVI melanoma
SK-OV-3 ovarian = test system: SK-OV-3 ovarian
NCI/ADR-RES ovarian = test system: NCI/ADR-RES ovarian
OVCAR-8 ovarian = test system: OVCAR-8 ovarian
HT29 colon = test system: HT29 colon
HOP-62 NSCLC = test system: HOP-62 NSCLC
SK-MEL-5 melanoma = test system: SK-MEL-5 melanoma
RPMI-8226 leukemia = test system: RPMI-8226 leukemia
T-47D breast = test system: T-47D breast
MDA-MB-231 breast = test system: MDA-MB-231 breast
NCI-H522 lung = test system: NCI-H522 lung
K-562 leukemia = test system: K-562 leukemia
HOP-92 NSCLC = test system: HOP-92 NSCLC
HL-60(TB) leukemia = test system: HL-60(TB) leukemia
RXF 393 renal = test system: RXF 393 renal
SK-MEL-2 melanoma = test system: SK-MEL-2 melanoma
UO-31 renal = test system: UO-31 renal
SF-268 CNS = test system: SF-268 CNS
OVCAR-5 ovarian = test system: OVCAR-5 ovarian
MCF7 breast = test system: MCF7 breast
IGROV1 ovarian = test system: IGROV1 ovarian
DU-145 prostate = test system: DU-145 prostate
PC-3 prostate = test system: PC-3 prostate
HCT-116 colon = test system: HCT-116 colon
UACC-62 melanoma = test system: UACC-62 melanoma
SW-620 colon = test system: SW-620 colon

Structure (SMILES): COc1ccc(S(=O)(=O)Nc2cc(Sc3cccc4cccnc34)c(O)c3ccccc23)cc1
- GI50 (SF-295 CNS): 2.23 µM
- TGI (SF-295 CNS): 13.3 µM
- GI50 (CAKI-1 renal): 2.53 µM
- TGI (CAKI-1 renal): 10.5 µM
- GI50 (OVCAR-4 ovarian): 0.609 µM
- TGI (OVCAR-4 ovarian): 1.93 µM
- GI50 (TK-10 renal): 2.82 µM
- TGI (TK-10 renal): 13.7 µM
- GI50 (MDA-MB-435): 2.2 µM
- TGI (MDA-MB-435): 13.2 µM
- GI50 (MALME-3M melanoma): 2.88 µM
- TGI (MALME-3M melanoma): 11.5 µM
- GI50 (A549 NSCLC): 0.587 µM
- TGI (A549 NSCLC): 12.8 µM
- GI50 (ACHN renal): 0.731 µM
- TGI (ACHN renal): 10 µM
- GI50 (NCI-H226 lung): 2.28 µM
- TGI (NCI-H226 lung): 19.9 µM
- GI50 (BT-549 breast): 2.65 µM
- TGI (BT-549 breast): 16.9 µM
- GI50 (M14 melanoma): 1.3 µM
- TGI (M14 melanoma): 12.1 µM
- GI50 (SNB-75 CNS): 3.41 µM
- TGI (SNB-75 CNS): 13.5 µM
- GI50 (A498 renal): 2.27 µM
- TGI (A498 renal): 16.5 µM
- GI50 (KM12 colon): 1.64 µM
- TGI (KM12 colon): 15 µM
- GI50 (SN12C renal): 1.06 µM
- TGI (SN12C renal): 4.99 µM
- GI50 (SF-539 CNS): 1.49 µM
- TGI (SF-539 CNS): 6.52 µM
- GI50 (SK-MEL-28 melanoma): 2.55 µM
- TGI (SK-MEL-28 melanoma): 13.2 µM
- GI50 (OVCAR-3 ovarian): 0.695 µM
- TGI (OVCAR-3 ovarian): 3.81 µM
- GI50 (COLO 205 colon): 1.66 µM
- TGI (COLO 205 colon): 4.12 µM
- GI50 (SR leukemia): 0.358 µM
- TGI (SR leukemia): > 100 µM
- GI50 (HCT-15 colon): 0.477 µM
- TGI (HCT-15 colon): 8.23 µM
- GI50 (EKVX NSCLC): 1.44 µM
- TGI (EKVX NSCLC): 10.9 µM
- GI50 (MOLT-4 leukemia): 0.563 µM
- TGI (MOLT-4 leukemia): 8.08 µM
- GI50 (HS 578T breast): 3.09 µM
- TGI (HS 578T breast): 28.9 µM
- GI50 (UACC-257 melanoma): 1.85 µM
- TGI (UACC-257 melanoma): 6.04 µM
- GI50 (NCI-H23 lung): 1.46 µM
- TGI (NCI-H23 lung): 10.8 µM
- GI50 (HCC-2998 colon): 6.7 µM
- TGI (HCC-2998 colon): 21.3 µM
- GI50 (U251 CNS): 0.579 µM
- TGI (U251 CNS): 11.9 µM
- GI50 (NCI-H460 lung): 0.466 µM
- TGI (NCI-H460 lung): 10.5 µM
- GI50 (LOX IMVI melanoma): 0.372 µM
- GI50 (SK-OV-3 ovarian): 3.59 µM
- TGI (SK-OV-3 ovarian): 14.4 µM
- GI50 (NCI/ADR-RES ovarian): 0.707 µM
- TGI (NCI/ADR-RES ovarian): 12.2 µM
- GI50 (OVCAR-8 ovarian): 0.595 µM
- TGI (OVCAR-8 ovarian): 18.8 µM
- GI50 (HT29 colon): 0.823 µM
- TGI (HT29 colon): 10.4 µM
- GI50 (HOP-62 NSCLC): 1.71 µM
- TGI (HOP-62 NSCLC): 21.7 µM
- GI50 (SK-MEL-5 melanoma): 1.33 µM
- TGI (SK-MEL-5 melanoma): 2.85 µM
- GI50 (RPMI-8226 leukemia): 2.47 µM
- TGI (RPMI-8226 leukemia): 8.92 µM
- GI50 (T-47D breast): 1.73 µM
- TGI (T-47D breast): 5.64 µM
- GI50 (MDA-MB-231 breast): 0.992 µM
- TGI (MDA-MB-231 breast): 12.5 µM
- GI50 (NCI-H522 lung): 1.36 µM
- TGI (NCI-H522 lung): 3.74 µM
- GI50 (K-562 leukemia): 0.926 µM
- TGI (K-562 leukemia): 11.2 µM
- GI50 (HOP-92 NSCLC): 1.55 µM
- TGI (HOP-92 NSCLC): 5.93 µM
- GI50 (HL-60(TB) leukemia): 1.18 µM
- TGI (HL-60(TB) leukemia): 4.94 µM
- GI50 (RXF 393 renal): 1.24 µM
- TGI (RXF 393 renal): 6.33 µM
- GI50 (SK-MEL-2 melanoma): 1.37 µM
- TGI (SK-MEL-2 melanoma): 6.26 µM
- GI50 (UO-31 renal): 0.926 µM
- TGI (UO-31 renal): 8.61 µM
- GI50 (SF-268 CNS): 1.55 µM
- TGI (SF-268 CNS): 9.81 µM
- GI50 (OVCAR-5 ovarian): 2.83 µM
- TGI (OVCAR-5 ovarian): 12.7 µM
- GI50 (MCF7 breast): 0.42 µM
- TGI (MCF7 breast): 2.77 µM
- GI50 (IGROV1 ovarian): 1.09 µM
- TGI (IGROV1 ovarian): 7.2 µM
- GI50 (DU-145 prostate): 0.738 µM
- TGI (DU-145 prostate): 2.65 µM
- GI50 (PC-3 prostate): 0.512 µM
- TGI (PC-3 prostate): 10.6 µM
- GI50 (HCT-116 colon): 0.505 µM
- TGI (HCT-116 colon): 2.35 µM
- GI50 (UACC-62 melanoma): 2.04 µM
- TGI (UACC-62 melanoma): 6.83 µM
- GI50 (SW-620 colon): 0.815 µM
- TGI (SW-620 colon): 3.62 µM
